The inhibition is the relative decrease from the control value, in per cent.

The experiment addresses S. pyogenes P5C reductase (Streptococcus pyogenes, UniProt Q9A1S9). As to the kind of experiment: P5C reductase inhibition assay. As to conditions: read-out: Enzyme inhibition at 0.2 mM. Format: biochemical.

Consider `NC(P(=O)(O)O)P(=O)(O)O` [Compound 01, aminomethylenebisphosphonic acid], for which the inhibition at 200 µM was determined as 3 ± 2.1%.
